Consider 13 molecules from PubChem BioAssay (NCI).

Test systems include OVCAR-4 ovarian; PC-3 prostate; SK-MEL-2 melanoma; MDA-MB-231 breast; LOX IMVI melanoma; 786-0 renal; SK-MEL-28 melanoma; SK-MEL-5 melanoma; MOLT-4 leukemia; SF-539 CNS; NCI-H226 lung.
What all share (test): NCI tumour cell line growth inhibition, 48 h

Structures are written as SMILES. Where “and” joins values, the source holds several entries; their conditions need not be identical. Identical values can stand only once.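 In this assay, cells in 96-well plates receive the compound at five concentrations for 48 hours. Endpoints are linearly interpolated between the surrounding concentrations. Abbreviation: GI50, concentration required for 50% inhibition of growth. Definition used: TGI = concentration required for complete inhibition of growth.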 Bounds are passed on as bounds.

As for `O=C(O)C1C2CCC(O2)C1C(=O)Nc1cccc2cccnc12` (centres undefined), the TGI in the test on OVCAR-4 ovarian, in the test on PC-3 prostate, in the test on SK-MEL-2 melanoma, in the test with MDA-MB-231 breast, in the test with LOX IMVI melanoma and with 786-0 renal was over 100 µM in each case. The molecule further yielded a TGI in the test on SK-MEL-28 melanoma of over 100 µM.

Consider `O=C(/C=C/c1ccc(O)c(-c2cc(C(=O)/C=C/c3ccc(O)cc3)c(O)cc2O)c1)c1ccc(O)cc1O`, for which the TGI in the test on SK-MEL-5 melanoma, with MOLT-4 leukemia, in the test with OVCAR-4 ovarian, in the test on PC-3 prostate, in the test with SK-MEL-2 melanoma and in the test with MDA-MB-231 breast was over 50 µM throughout. Also, the TGI in the test with LOX IMVI melanoma was 43.1 µM; in the test on SF-539 CNS it was 26.3 µM; in the test with 786-0 renal, over 50 µM; in the test on SK-MEL-28 melanoma, 22.1 µM.

For the molecule `CNc1ccc2c(c1)[C@@]1(C)c3ccccc3[C@@H](C2)N1C`, the TGI in the test on SK-MEL-5 melanoma was 32 µM; with MOLT-4 leukemia, 47.6 µM; in the test on OVCAR-4 ovarian it was over 100 µM; with PC-3 prostate, over 100 µM; with SK-MEL-2 melanoma, 51.7 µM; in the test on MDA-MB-231 breast, 62.6 µM. Moreover, the TGI amounted to 36.6 µM in the test with LOX IMVI melanoma and 34.3 µM with 786-0 renal.

With `O=C(/C=C/c1ccccc1)NNC(=O)c1c(Cl)c(Cl)c(Cl)c(Cl)c1-c1nc2ccccc2[nH]1`, the TGI with NCI-H226 lung is over 100 µM; in the test on SK-MEL-5 melanoma, 62.4 µM; in the test with MOLT-4 leukemia it was over 100 µM; with OVCAR-4 ovarian, over 100 µM; in the test on PC-3 prostate it was over 100 µM; in the test with SK-MEL-2 melanoma it was 80.8 µM. For the same molecule, the TGI in the test with LOX IMVI melanoma is 59.6 µM; in the test on SF-539 CNS, over 100 µM; in the test with 786-0 renal, 73.8 µM; in the test on SK-MEL-28 melanoma, over 100 µM.

For the molecule `Nc1nc(SCCc2ccccc2)nc2nc3c(c(-c4ccccc4)c12)CCCC3`, the TGI in the test on MOLT-4 leukemia, with OVCAR-4 ovarian, in the test on PC-3 prostate, with MDA-MB-231 breast, with LOX IMVI melanoma and with SF-539 CNS was over 100 µM in each case. The same molecule had a TGI in the test with SK-MEL-28 melanoma of over 100 µM.

Turning to `CC(=O)C1=C(C)N(c2ccc(C)cc2)C2(O)C=CC(=O)C3C(=O)N(c4ccccc4)C(=O)C132` (centres undefined), the TGI was determined as 34.3 µM in the test with NCI-H226 lung; 34 µM in the test on SK-MEL-5 melanoma; 41.2 µM with OVCAR-4 ovarian; 62.3 µM in the test on PC-3 prostate; 28.8 µM in the test with SK-MEL-2 melanoma; 42.8 µM with MDA-MB-231 breast. The TGI with SF-539 CNS is 65.2 µM; in the test on 786-0 renal, over 100 µM; in the test on SK-MEL-28 melanoma, 43.8 µM.

As for `COc1ccc(C(=O)/C=C/c2cccc([N+](=O)[O-])c2)c(OC)c1`, the GI50 in the test on NCI-H226 lung is 1.65 µM; in the test with SK-MEL-5 melanoma it was 2.37 µM; in the test on MOLT-4 leukemia it was 1.17 µM; with OVCAR-4 ovarian, 2.11 µM; with SK-MEL-2 melanoma, 12.4 µM; in the test with MDA-MB-231 breast, 1.92 µM. Further, the values for the GI50 in the test on LOX IMVI melanoma, in the test with SF-539 CNS and in the test on SK-MEL-28 melanoma were 0.895 µM, 1.18 µM and 4.75 µM, respectively. Besides, the TGI in the test on NCI-H226 lung is 7.77 µM; in the test on SK-MEL-5 melanoma, over 50 µM; in the test on MOLT-4 leukemia, 3.88 µM; in the test on OVCAR-4 ovarian, over 50 µM; in the test with SK-MEL-2 melanoma it was over 50 µM; with MDA-MB-231 breast, over 50 µM. Moreover, the TGI with LOX IMVI melanoma is 1.94 µM; in the test on SF-539 CNS, 3.09 µM; in the test with SK-MEL-28 melanoma it was over 50 µM.

As to `COc1nc(C#CC2(O)CCCCC2)nc(OC)n1`, the TGI in the test with SK-MEL-5 melanoma is 20.2 µM; with MOLT-4 leukemia it was over 100 µM; in the test with OVCAR-4 ovarian, 4.44 µM; with PC-3 prostate it was 18.5 µM; in the test on SK-MEL-2 melanoma, 27 µM; in the test on MDA-MB-231 breast it was 15 µM. For the same molecule, the TGI in the test on LOX IMVI melanoma was 11.7 µM; in the test on SF-539 CNS, 23.3 µM; in the test on 786-0 renal, over 100 µM; in the test on SK-MEL-28 melanoma, 30.2 µM.

For `CCCCCCCCC/C=C/C=C/C(=O)NCC(=O)NC1C(O)C(O)C(Nc2ncnc3nc[nH]c23)OC1C(O)CO` (centres undefined), the GI50 was 0.00179 µM in the test on NCI-H226 lung, 0.372 µM in the test on MOLT-4 leukemia, 0.00022 µM with OVCAR-4 ovarian and 0.00735 µM in the test on LOX IMVI melanoma. The TGI in the test with NCI-H226 lung was 0.1 µM and 0.373 µM; in the test with SK-MEL-5 melanoma it was 0.12 µM; in the test on MOLT-4 leukemia, over 100 µM; in the test with OVCAR-4 ovarian it was 0.0515 µM; in the test with PC-3 prostate, 0.00787 µM; in the test with SK-MEL-2 melanoma it was 0.057 µM and 0.136 µM. In addition, the TGI in the test on LOX IMVI melanoma is 0.0396 µM; in the test on SF-539 CNS, 0.103 µM; in the test with 786-0 renal it was 0.176 µM and 0.256 µM; in the test with SK-MEL-28 melanoma, 3.25 µM.

Turning to `Cc1c(N2C(=O)CS(=O)(=O)C2c2cccc(Oc3ccccc3)c2)c(=O)n(-c2ccccc2)n1C` (centres undefined), the TGI in the test on NCI-H226 lung is over 100 µM; in the test with SK-MEL-5 melanoma it was over 100 µM; in the test on MOLT-4 leukemia, over 100 µM; with OVCAR-4 ovarian, 66.3 µM; with PC-3 prostate it was over 100 µM; in the test with SK-MEL-2 melanoma, over 100 µM. The TGI in the test with MDA-MB-231 breast, in the test on LOX IMVI melanoma, in the test with SF-539 CNS and with SK-MEL-28 melanoma was over 100 µM in each case.

For the molecule `CN(C)CC(CC1=C(CC(CN(C)C)N(C)C)CCC1)N(C)C` (centres undefined), the TGI in the test with NCI-H226 lung, with SK-MEL-5 melanoma, with MOLT-4 leukemia, in the test on OVCAR-4 ovarian, in the test on SK-MEL-2 melanoma and with LOX IMVI melanoma was over 100 µM in each case. The TGI in the test with SF-539 CNS and in the test on SK-MEL-28 melanoma was over 100 µM throughout.

For `NC(=O)c1c(NC(=O)c2ccccn2)sc2c1CCC(=O)C2`, the GI50 in the test with MOLT-4 leukemia was over 100 µM; in the test on LOX IMVI melanoma, 3.72 µM. In addition, the TGI in the test on MOLT-4 leukemia, with PC-3 prostate and in the test on LOX IMVI melanoma was over 100 µM throughout.

As to `CCN(CC(=O)O)C(=O)c1cccnc1`, the TGI in the test on MOLT-4 leukemia, with OVCAR-4 ovarian, with PC-3 prostate, in the test on SK-MEL-2 melanoma, in the test with MDA-MB-231 breast and in the test on LOX IMVI melanoma was over 100 µM in each case. Also, the TGI in the test with 786-0 renal and in the test on SK-MEL-28 melanoma was over 100 µM throughout.
